# Laboratory results reported in patent US20170304178A1, “Peptides and Their Use in the Treatment of Skin” (AVON PRODUCTS, INC., priority 2014, published 2017).
# Marks after values point to notes of the source that are not given here. Residues, ends and D or L forms follow the SMILES beside them.
# Key:
# [1] = tested on: human dermal fibroblast cells; experiment: Secreted hyaluronic acid (HA) in media of human dermal fibroblasts (HA Elisa kit); format: cell-based; conditions: 48 h, percent change relative to vehicle control
# Description: (§1) Human dermal fibroblast cells were grown in a 96 well plate in DMEM media (available from Corning, N.Y.) supplemented with 10% Fetal Bovine Serum (FBS) and L-glutamine (0.07×10^5 cells/plate). After reaching about 75% confluence, cells were transferred into DMEM media without FBS and incubated for 4-6 hours. Next, cells were treated with peptides of Formulas I-V at 0.00001%, 0.0001%, 0.001% final concentration in DMEM media without FBS for 48 h. After treatment the media were collected, and cell viability was measured using MTT. The amount of secreted collagen was tested in the media using HTRF human pro-collagen I kit (Cisbio Inc, Bedford, Mass.). The amount of secreted Hyaluronic Acid (HA) was tested in the media using HA Elisa kit (available from Corgenix, Broomfield, Colo.).
# (§2) Results are summarized in Table 1 below as percent change of pro-collagen I and HA production relative to vehicle control: […]
# [2] = tested on: human dermal fibroblast cells; experiment: Secreted pro-collagen I in media of human dermal fibroblasts (HTRF human pro-collagen I kit); format: cell-based; conditions: 48 h, percent change relative to vehicle control
# Description: as §1, §2
SMILES,Increase in HA Production ([1]; peptide concentration 0.001%),Increase in Pro-Collagen I Production ([2]; peptide concentration 0.001%),Increase in HA Production ([1]; peptide concentration 0.0001%),Increase in Pro-Collagen I Production ([2]; peptide concentration 0.00001%)
"CCC(C)C(N)C(=O)NC(Cc1ccccc1)C(=O)NCC(=O)NCC(=O)NC(C(=O)NC(C(=O)NC(Cc1ccc(O)cc1)C(=O)NC(CCCNC(=N)N)C(=O)NC(CO)C(=O)O)C(C)C)C(C)O (stereo not drawn) [IFGGTVYRS (SEQ ID NO: 4), Ile-Phe-Gly-Gly-Thr-Val-Tyr-Arg-Ser] (H-IFGGTVYRS-OH; configuration not given here)",+50-90%,+10-30%,–,–
"CC(C)CC(N)C(=O)NC(CCCNC(=N)N)C(=O)NC(CC(C)C)C(=O)NC(CCCCN)C(=O)O (stereo not drawn) [LRLK (SEQ ID NO: 1), Leu-Arg-Leu-Lys] (H-LRLK-OH; configuration not given here)",+20-50%,–,–,–
"CSCCC(N)C(=O)NC(C(=O)NC(C(=O)O)C(C)C)C(C)C (stereo not drawn) [MVV (SEQ ID NO: 2), Met-Val-Val] (H-Met-Val-Val-OH; configuration not given here)",–,–,+20-50%,–
"CCC(C)C(NC(=O)C(CCCCN)NC(=O)C(NC(=O)C(NC(=O)C(N)CCCNC(=N)N)C(C)O)C1CCCN1)C(=O)NC(CO)C(=O)NC(CCCCN)C(=O)NC(C(=O)NC(C(=O)NC(CCCCN)C(=O)NC(Cc1ccccc1)C(=O)NC(CCC(=O)O)C(=O)NC(CC(C)C)C(=O)NC(CO)C(=O)NCC(=O)O)C(C)CC)C1CCCN1 (stereo not drawn) [RTPKISKPIKFELSG (SEQ ID NO: 5), Arg-Thr-Pro-Lys-Ile-Ser-Lys-Pro-Ile-Lys-Phe-Glu-Leu-Ser-Gly]",+20-50%,–,–,–
"CC(NC(=O)CNC(=O)C(CC(=O)O)NC(=O)C(CCCCN)NC(=O)C(C)NC(=O)C(N)C(C)O)C(=O)NC(C(=O)O)C1CCCN1 (stereo not drawn) [TAKDGAP (SEQ ID NO: 3), Thr-Ala-Lys-Asp-Gly-Ala-Pro]",+50-90%,–,–,+10-30%**
